System: tonic extensor seizure
Assay: maximal electroshock test (MES), block of tonic extensor seizure
Format: in vivo, mice (male albino, Swiss Webster)
Conditions: Mus musculus, ip, 0.5 h; mice, i.p., tested 30 minutes after injection; 1b in aqueous solution, Examples 2 and 3 as suspensions with Tween 80 and water; probit analysis
Protocol: The compounds of formula (I) are useful as anticonvulsant agents. The anticonvulsant activity of the subject compounds was determined using a standard "maximal electroshock test" (MES). In this test, activity is indicated by a block of the tonic extensor seizure caused by application of an electric shock to mice via corneal electrodes, as described by Swinyard et al in J. Pharmacol. Exptl. Therap. 106, 319 (1952). A more recent description of current anticonvulsant drug screening is given in Swinyard et al in Epilepsia 19, 409 (1978). Non-fasted male albino mice of the Swiss Webster strain (Royal-Hart Laboratories, New Hampton, N.Y.) weighing 18-24 grams were used in this test. Six to eight groups of ten mice each were used per ED50 determination. The product of Example 1b was administered in aqueous solution while the compounds produced in Examples 2 and 3 were administered as suspensions prepared with Tween 80 and water. Testing was conducted at 30 minutes following intraperitoneal injection of the test compound. A group of ten mice injected with saline 10 ml/kg i.p. and tested 30 minutes later served as controls. ED50 's were calculated using a computerized probit analysis procedure.

Row | Compound | ED50 [mg/kg]
1 | NS(=O)(=O)OCC1COC2(CCCCC2)O1 (stereo not drawn) [Example 3, (1,4-Dioxaspiro[4.5]dec-2-yl)methyl Sulfamic acid ester] | 169
2 | CC1(C)OCC(COS(N)(=O)=O)O1 (stereo not drawn) [Example 1b, (2,2-Dimethyl-1,3-dioxolan-4-yl)methyl sulfamic acid ester] | 105
3 | CCCCCCCCCC1(C)OCC(COS(N)(=O)=O)O1 (stereo not drawn) [Example 2, (2-Methyl-2-nonyl-1,3-dioxolan-4-yl)methyl sulfamic acid ester Hydrate compound with 2-undecanone (10:1:2)] | 319
